Reference: BindingDB's records for doi:10.1074/jbc.M413155200 (Vertex Pharmaceuticals, 2005)

Target: Serine/threonine-protein kinase pim-1 (Homo sapiens, UniProt P11309)
Assay: Kinase Assay
Details: pH 7.6; 30 °C

Serine/threonine-protein kinase pim-1, sequence (P11309 whole entry): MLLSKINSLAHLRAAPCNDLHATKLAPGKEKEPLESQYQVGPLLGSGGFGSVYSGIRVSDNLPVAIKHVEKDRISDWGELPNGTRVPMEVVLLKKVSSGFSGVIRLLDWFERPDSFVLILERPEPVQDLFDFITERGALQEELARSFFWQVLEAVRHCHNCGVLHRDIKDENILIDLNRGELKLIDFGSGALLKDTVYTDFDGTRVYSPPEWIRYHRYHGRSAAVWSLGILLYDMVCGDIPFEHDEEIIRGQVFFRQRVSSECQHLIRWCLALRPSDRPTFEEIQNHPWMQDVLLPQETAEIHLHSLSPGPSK

COC(=O)[C@@]1(O)C[C@H]2O[C@]1(C)n1c3ccccc3c3c4c(c5c6ccccc6n2c5c31)C(=O)NC4
IC50: 150 nM
